Source: patent publication US6743576B1, “Database system for predictive cellular bioinformatics” (Cytokinetics, Inc., priority 1999, dated 2004)

Experiments:
Type in all cases: cell-based
[1] = test system: HeLa cells; assay: Automated Hoechst image analysis of HeLa cells treated with 6 known compounds; settings: 10 ug/mL, 24 hours, 10x objective, FIG. 11
Description: In a third experiment, the purpose was to determine whether the automated analysis methods developed in the first experiment can detect differences in Hoechst morphology in the presence of 6 known compounds at one concentration and exposure time in one cell line. In this experiment, HeLa cells were separately treated with 6 compounds with known mechanism of action. The quantitative methods described in the first experiment were applied to the Hoechst images.
Approximately 5,000 HeLa cells per well were plated in a Costar black-walled 96 well tissue culture treated plate and left to recover in the incubator for 24 hours. After this time, 10 ug/mL of cytochalasin D (CD), Taxol, hydroxyurea, vinblastine, nocodazole, and staurosporine was added to different wells at a 1:100 addition in DMSO. The cells were incubated in the presence of drug for 24 more hours. After 24 hours, the cells were removed and fixed as in the first experiment. Then, 9 images per well were collected of the Hoechst staining using a 10× objective.
The low magnification images taken of Hoechst were run through the automated image analysis method described in the first experiment. Plots of the average intensity and area were made of each compound. […] The scatter plots of each compound are visually distinct. […] Furthermore, the number of cells per well was very different (data not shown).

[2] = test system: MDCK cells; assay: Effects of Taxol on MDCK cells, Hoechst morphologies manually counted; settings: 4.5 hours, 10 μM-1pM, FIG. 10
Experimental: In a second experiment, the effects of Taxol on MDCK cells and the different types of morphological effects were observed. A plurality of MDCK cells grown in 96 well plates were treated with Taxol for 4.5 hours at different concentrations (10 μM−1pM). They were then fixed, labeled with Hoechst, and imaged.
This experiment used a labeling protocol comprising: MEOH fix at −20°, Wash in PBS, Block in PBS/BSA/Serum/Triton-X 100, Incubate with 5 μg/ml Hoechst 10 minutes, and wash.
Cells were inspected for different morphologies and manually counted at each different drug concentration in one well. […] The next step is to test the automated Hoechst analysis of the first experiment with multiple drugs.

[3] = test system: HeLa cells; assay: High magnification Hoechst and phalloidin images of HeLa cells in the presence of drugs; settings: 10 ug/mL, 24 hours, 40x objective, vs DMSO control, FIG. 12
Experimental: A fourth experiment was performed to obtain high magnification images of two markers in the presence of drugs. In this experiment, HeLa cells were treated with 80 generic compounds with known mechanism of action. The quantitative methods described in the first experiment were applied to the Hoechst images.
Approximately 5,000 HeLa cells per well were plated in a Costar black walled 96 well tissue culture-treated plate and left to recover in the incubator for 24 hours. After this time, 10 ug/mL of each compound from the Killer Plate from Microsource Discovery Systems (Gaylordsville, Conn.) was added to different wells at a 1:100 addition in DMSO. The cells were incubated in the presence of drug for 24 more hours. After 24 hours, the cells were removed and fixed as in the first experiment. In addition to being labeled with Hoechst 33342 (against chromatin), cells were also labeled with 1 unit of rhodamine-conjugated phalloidin (against actin) for 30 minutes.
The 96 well plate was imaged twice. Once, 9 images per well were collected of the Hoechst staining using a 10× objective. After this, one image per well of both the phalloidin and Hoechst staining was collected using a 40× objective.
The resulting high magnification images were analyzed qualitatively and distinct pattern differences were detected in both the Hoechst and phalloidin images. […] The top row is the Hoechst staining, and the bottom row is the phalloidin staining from the same well. The columns show the images from wells treated with just DMSO (control), cytochalasin D, and Colchicine. Notice that the morphology of each marker is different in the presence of each drug.

| SMILES | cell (Hoechst object) size/area compared to control [1] | actin cytoskeleton morphology in the phalloidin image [3] | other results |
| --- | --- | --- | --- |
| NC(=O)NO [Hydroxyurea, hydroxyurea] | larger | – | brightness (average Hoechst intensity) compared to control [1]: brighter |
| CC(=O)O[C@H]1C(=O)[C@@]2(C)[C@H]([C@H](OC(=O)c3ccccc3)[C@]3(O)C[C@H](OC(=O)[C@H](O)[C@@H](NC(=O)c4ccccc4)c4ccccc4)C(C)=C1C3(C)C)[C@]1(OC(C)=O)CO[C@@H]1C[C@@H]2O [Taxol, paclitaxel] | – | – | number of normal mitotic cells as a function of drug concentration [2]: fewer number of normal mitotic cells were detected; proportion of cells undergoing apoptosis as a function of drug concentration [2]: larger proportion of cells underwent apoptosis |
| COc1cc2c(c(OC)c1OC)-c1ccc(OC)c(=O)cc1[C@@H](NC(C)=O)CC2 [colchicine] | – | there is an effect on the actin cytoskeleton | – |
| C=C1[C@@H](C)[C@H]2[C@H](Cc3ccccc3)NC(=O)[C@]23[C@H](OC(C)=O)/C=C/[C@@](C)(O)C(=O)[C@@H](C)C/C=C/[C@H]3[C@@H]1O [cytochalasin D] | smaller than control | expected effect in the phalloidin image | morphology of the chromatin in the Hoechst image [3]: there is an effect in the morphology of the chromatin |
